Measurements published in ChEMBL document CHEMBL1125751, “On the optimization of hydrophobic and hydrophilic substituent interactions of 2,4-diamino-5-(substituted-benzyl)pyrimidines with dihydrofolate reductase” (J Med Chem, 1991).

Assays:
[1] = target: T1, Dihydrofolate reductase (Gallus gallus, UniProt P00378); assay: Compound was evaluated for inhibitory activity against chicken dihydrofolate reductase; conditions: read-out: Log 1/Ki (converted)
T1 sequence (P00378 whole entry): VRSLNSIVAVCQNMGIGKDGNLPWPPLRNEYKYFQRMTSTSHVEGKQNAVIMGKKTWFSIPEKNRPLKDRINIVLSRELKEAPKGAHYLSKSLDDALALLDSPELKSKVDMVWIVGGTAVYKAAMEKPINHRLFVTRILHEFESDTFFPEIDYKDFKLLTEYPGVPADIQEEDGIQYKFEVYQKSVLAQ

[2] = (§1) Selectivity index against Escherichia coli DHFR.; format: functional
[3] = (§2) Selectivity index against Lactobacillus casei DHFR.; format: functional
[4] = target: T2, Dihydrofolate reductase (Homo sapiens) (UniProt P00374); assay: as §1; format: functional
T2 sequence (whole entry): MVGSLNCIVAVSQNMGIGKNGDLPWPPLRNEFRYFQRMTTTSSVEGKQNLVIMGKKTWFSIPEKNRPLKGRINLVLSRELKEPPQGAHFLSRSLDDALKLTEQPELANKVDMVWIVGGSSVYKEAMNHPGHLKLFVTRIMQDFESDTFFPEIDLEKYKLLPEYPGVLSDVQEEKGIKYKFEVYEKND

[5] = target: T2, Dihydrofolate reductase (Homo sapiens); assay: as §2; format: functional

| Structure (SMILES) | Ki [1] | SI [2] | SI [3] | SI [4] | SI [5] |
| --- | --- | --- | --- | --- | --- |
| CCc1cc(Cc2cnc(N)nc2N)cc(NC(C)=O)c1CO | 708 µM | 4.87 | 3.36 | – | – |
| CCc1cc(Cc2cnc(N)nc2N)cc(CO)c1CO | – | – | – | 4.28 | 3.13 |
